Measurements published in the supplement of paper PMC10307832.

Tests used:
Assay in all cases: relative viability (nuclei count vs DMSO), 5 days (fraction); higher = more cells survive
[1] = compound: CN1C=C(C2=CC=CC=C21)/C=C\3/C4=C(C=CC=N4)NC3=O + COc1cccc2cc(-c3nc([C@H]4CC[C@H](C(=O)O)CC4)n4ncnc(N)c34)[nH]c12 [OSI-027] (partner 0.5 µM)
How it was run: (§1)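 Dosing by pin tool came one day after lung cancer cell lines were seeded in 1536-well plates, using either one drug or a fixed anchor-drug dose plus five library-drug doses (not always all listed) in √10 steps. After 5 days, nuclei were counted on 4× images. Relative viability is treated-well nuclei count divided by vehicle-well nuclei count, and values are medians of duplicate plates.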

[2] = compound: CN1C=C(C2=CC=CC=C21)/C=C\3/C4=C(C=CC=N4)NC3=O + CC(=O)Nc1cccc(-n2c(=O)n(C3CC3)c(=O)c3c(Nc4ccc(I)cc4F)n(C)c(=O)c(C)c32)c1 [Trametinib] (partner 0.02 µM)
How it was run: as §1

[3] = compound: CC(=O)Nc1cccc(-n2c(=O)n(C3CC3)c(=O)c3c(Nc4ccc(I)cc4F)n(C)c(=O)c(C)c32)c1 [Trametinib] + CC(=O)c1c(C)c2cnc(Nc3ccc(N4CCNCC4)cn3)nc2n(C2CCCC2)c1=O [Palbociclib] (partner 0.5 µM)
How it was run: as §1

[4] = compound: CN1C=C(C2=CC=CC=C21)/C=C\3/C4=C(C=CC=N4)NC3=O + NC(=O)Nc1cc(-c2cccc(F)c2)sc1C(=O)N[C@H]1CCCNC1 [AZD7762] (partner 0.2 µM)
How it was run: as §1

Cell Line	relative viability ([1]; first compound 0.02 µM)	relative viability ([1]; first compound 0.06325 µM)	relative viability ([1]; first compound 0.2 µM)	relative viability ([1]; first compound 0.6325 µM)	relative viability ([1]; first compound 2 µM)	relative viability ([2]; first compound 0.02 µM)	relative viability ([2]; first compound 0.06325 µM)	relative viability ([2]; first compound 0.6325 µM)	relative viability ([2]; first compound 2 µM)	relative viability ([3]; first compound 0.0025 µM)	relative viability ([3]; first compound 0.007906 µM)	relative viability ([3]; first compound 0.025 µM)	relative viability ([3]; first compound 0.07906 µM)	relative viability ([3]; first compound 0.25 µM)	relative viability ([4]; first compound 0.02 µM)	relative viability ([4]; first compound 0.6325 µM)	relative viability ([4]; first compound 2 µM)	relative viability ([4]; first compound 0.06325 µM)	relative viability ([2]; first compound 0.2 µM)	relative viability ([4]; first compound 0.2 µM)
NCI-H2023	0.395	0.351	0.231	0.337	0.316	0.528	0.571	0.378	0.43	0.348	0.3	0.24	0.196	0.119						
SW 900	0.601	0.49		0.6	0.703	0.763		0.676	0.799	0.56	0.49	0.483	0.457	0.383	0.512	0.555	0.591			
HOP-62	0.712	0.873	0.645	0.875	0.846	0.424	0.415	0.354	0.325	0.505	0.444	0.397	0.231	0.158	0.569	0.919	0.774	0.559		
H3255	0.676	0.627	0.532	0.621	0.53	0.726		0.775	0.668	0.339	0.356	0.357	0.342	0.365	1.02	0.954	0.844	0.86	0.57	0.848
NCI-H1734	0.581	0.631		0.68	0.565	0.603	0.619	0.676	0.699	0.337	0.353		0.292	0.241	0.521	0.546	0.559	0.537		
SK-MES-1	0.58	0.628	0.582	0.608	0.446	0.509	0.603	0.596	0.54	0.358	0.357	0.319	0.354	0.26					0.538	
NCI-H1792	0.72	0.71	0.768		0.464	0.474	0.54	0.353	0.406	0.6	0.51	0.49	0.382	0.303	0.943	0.518	0.693	0.702	0.462	0.376
EKVX	0.589	0.434	0.855	0.682	0.627	0.268		0.233	0.201	0.375	0.401	0.173	0.182	0.182	0.676	0.644	0.607			
EPLC-272H	0.219	0.29	0.269		0.309	0.348	0.263	0.283	0.267	0.293	0.303	0.262	0.207	0.239	0.321	0.132	0.174	0.244		
LK-2			0.184	0.195	0.211		0.683	0.701	0.794	0.551	0.603	0.704	0.738	0.223	0.173	0.32	0.271	0.278	0.743	0.162
CAL-12T	0.628	0.47	0.525	0.645	0.53	0.32	0.308	0.325	0.298	0.387	0.193	0.179	0.171	0.187	0.586	0.643	0.612	0.612	0.315	0.623
NCI-H322M	0.516	0.487	0.4	0.587	0.567	0.476	0.503	0.468	0.553	0.448	0.428	0.404	0.43	0.431	0.58	0.592	0.617	0.488	0.51	0.509
NCI-H1650	0.55	0.541	0.437	0.458	0.539	0.559	0.535	0.582	0.53	0.34	0.38	0.34	0.357	0.158					0.559	
NCI-H2342	0.617	0.616	0.596	0.535	0.65	0.921	0.753	0.655	0.686	0.48	0.511	0.425	0.446	0.477	0.434	0.42	0.406	0.459	0.725	0.393
SW 1573	0.737	0.557	0.559	0.54	0.551	0.531	0.576	0.687	0.712	0.36	0.301	0.298	0.158	0.17					0.571	
NCI-H2405	0.703	0.611	0.62	0.657	0.711	0.686	0.561	0.657	0.617	0.527	0.58	0.419		0.281	0.857	0.835	0.795	0.731	0.564	0.552
LCLC-103H	0.402	0.416	0.494	0.509	0.461	0.645	0.691	0.667	0.681	0.484	0.44	0.483	0.468	0.507	0.864	0.741	0.786	0.758	0.718	0.73
HCC-44	0.478	0.486		0.455	0.457	1.08	1.12	1.04	0.884	0.974	1.01	1.08	1.03	1.02	0.937	1	0.956	1.02	0.968	0.94
RERF-LC-KJ	0.551	0.574	0.493	0.554	0.545	0.887	0.835	0.804	0.822	1.03	0.857	0.914	0.848	0.66	1.03	1.01	0.928	0.96	0.771	0.805
NCI-H1975	0.698	0.739	0.828	0.646	0.449	0.32	0.237	0.326	0.271	0.543	0.349	0.506	0.19	0.129	0.893	0.602	0.542	0.811	0.323	0.62

Cell Line	relative viability ([1]; first compound 0.02 µM)	relative viability ([1]; first compound 0.06325 µM)	relative viability ([1]; first compound 0.2 µM)	relative viability ([1]; first compound 0.6325 µM)	relative viability ([1]; first compound 2 µM)	relative viability ([2]; first compound 0.02 µM)	relative viability ([2]; first compound 0.06325 µM)	relative viability ([2]; first compound 0.6325 µM)	relative viability ([2]; first compound 2 µM)	relative viability ([3]; first compound 0.0025 µM)	relative viability ([3]; first compound 0.007906 µM)	relative viability ([3]; first compound 0.025 µM)	relative viability ([3]; first compound 0.07906 µM)	relative viability ([3]; first compound 0.25 µM)	relative viability ([4]; first compound 0.02 µM)	relative viability ([4]; first compound 0.6325 µM)	relative viability ([4]; first compound 2 µM)	relative viability ([4]; first compound 0.06325 µM)	relative viability ([2]; first compound 0.2 µM)	relative viability ([4]; first compound 0.2 µM)
LCLC-97TM1	0.372	0.447	0.542	0.476	0.482		0.19	0.198	0.19	0.166	0.141	0.15	0.13	0.115	0.177	0.168	0.284	0.188	0.189	0.0774
NCI-H520	0.199	0.223	0.289	0.275	0.266	0.542	0.589	0.716	0.68	0.217	0.238	0.199	0.158	0.232					0.621	
A-427	0.575	0.445		0.549	0.416	0.796	0.721	0.708	0.813	0.534	0.511	0.45	0.45	0.372	0.782	0.729	0.802	0.753		
ABC-1	0.683	0.461	0.273	0.4	0.533					0.448	0.668	0.357	0.49	0.338	0.889	0.708	0.874			
NCI-H460	0.81	0.726	0.649	0.63	0.676	0.304	0.158	0.0905	0.12	0.152	0.0859	0.0921	0.018	0.0172	0.627	0.677	0.574	0.576	0.0911	0.263
NCI-H1395	0.604	0.613	0.445	0.669	0.601	0.946	0.976	0.98	1.07	0.56	0.562	0.517	0.567	0.489	0.385	0.407	0.403	0.374	1.01	0.364
NCI-H23	0.497	0.555	0.459	0.538	0.517	0.346	0.332	0.287	0.443	0.472	0.414	0.268	0.209	0.175	0.264	0.252	0.189	0.232	0.301	0.167
LOU-NH91	0.728	0.688	0.696	0.63	0.7	0.749	0.751	0.678	0.74	0.604	0.524	0.561	0.552	0.453	0.684	0.664	0.764	0.641	0.746	0.402
NCI-H2009	0.684	0.616	0.668	0.688	0.642	0.261	0.255	0.296	0.263	0.138	0.135	0.109	0.135	0.125					0.293	
NCI-H358	0.756	0.67	0.768	0.851	0.689	0.12	0.127	0.136	0.117	0.133	0.122	0.147	0.129	0.117	0.531	0.488	0.548	0.494	0.116	0.338
SK-LU-1	0.273	0.284	0.333	0.354	0.382	0.414	0.475	0.416	0.533	0.416	0.319	0.307	0.296	0.259					0.475	
NCI-H2228	0.576	0.452			0.462	0.379	0.464	0.285	0.566	0.649	0.595	0.57	0.369	0.235					0.24	
NCI-H1563	0.741	0.75	0.743	0.778	0.75															
NCI-H1703															0.107	0.112	0.14	0.138		0.118
NCI-H661	0.751	0.689	0.722	0.676	0.76	0.615	0.65	0.533	0.589	0.429	0.404	0.377	0.311	0.348					0.56	
COR-L23	0.713	0.716	0.829	0.723	0.843	0.519	0.575	0.545	0.606	0.317	0.246	0.191	0.143	0.14					0.576	
NCI-H1623	0.371	0.404	0.359	0.38	0.379															
COR-L 105	1.01	0.897	0.591	0.746	0.724	0.402	0.462	0.512	0.506	0.39	0.44	0.421	0.34	0.347					0.396	
NCI-H596	0.656	0.764	0.566	0.692	0.633	0.741	0.781	0.744	0.867						1	1	1.21	1.04	0.755	0.92
